Measured values: ChEMBL document CHEMBL2176878, “Synthesis and biological characterization of 3-substituted 1H-indoles as ligands of GluN2B-containing N-methyl-D-aspartate receptors. Part 2” (J Med Chem, 2012)

How the values were obtained:
[1] = molecular target: Glutamate receptor ionotropic, NMDA 2B (Rattus norvegicus) (UniProt Q00960); assay: Displacement of [3H]ifenprodil from NMDA receptor GluN2B subunit in Wistar rat cerebral cortex at 10 uM after 120 mins; format: tissue-based
[2] = molecular target: Glutamate receptor ionotropic, NMDA 2B (Rattus norvegicus, UniProt Q00960); assay: Displacement of [3H]ifenprodil from NMDA receptor GluN2B subunit in Wistar rat cerebral cortex after 120 mins; format: tissue-based
Sequence of Glutamate receptor ionotropic, NMDA 2B (Q00960 whole entry): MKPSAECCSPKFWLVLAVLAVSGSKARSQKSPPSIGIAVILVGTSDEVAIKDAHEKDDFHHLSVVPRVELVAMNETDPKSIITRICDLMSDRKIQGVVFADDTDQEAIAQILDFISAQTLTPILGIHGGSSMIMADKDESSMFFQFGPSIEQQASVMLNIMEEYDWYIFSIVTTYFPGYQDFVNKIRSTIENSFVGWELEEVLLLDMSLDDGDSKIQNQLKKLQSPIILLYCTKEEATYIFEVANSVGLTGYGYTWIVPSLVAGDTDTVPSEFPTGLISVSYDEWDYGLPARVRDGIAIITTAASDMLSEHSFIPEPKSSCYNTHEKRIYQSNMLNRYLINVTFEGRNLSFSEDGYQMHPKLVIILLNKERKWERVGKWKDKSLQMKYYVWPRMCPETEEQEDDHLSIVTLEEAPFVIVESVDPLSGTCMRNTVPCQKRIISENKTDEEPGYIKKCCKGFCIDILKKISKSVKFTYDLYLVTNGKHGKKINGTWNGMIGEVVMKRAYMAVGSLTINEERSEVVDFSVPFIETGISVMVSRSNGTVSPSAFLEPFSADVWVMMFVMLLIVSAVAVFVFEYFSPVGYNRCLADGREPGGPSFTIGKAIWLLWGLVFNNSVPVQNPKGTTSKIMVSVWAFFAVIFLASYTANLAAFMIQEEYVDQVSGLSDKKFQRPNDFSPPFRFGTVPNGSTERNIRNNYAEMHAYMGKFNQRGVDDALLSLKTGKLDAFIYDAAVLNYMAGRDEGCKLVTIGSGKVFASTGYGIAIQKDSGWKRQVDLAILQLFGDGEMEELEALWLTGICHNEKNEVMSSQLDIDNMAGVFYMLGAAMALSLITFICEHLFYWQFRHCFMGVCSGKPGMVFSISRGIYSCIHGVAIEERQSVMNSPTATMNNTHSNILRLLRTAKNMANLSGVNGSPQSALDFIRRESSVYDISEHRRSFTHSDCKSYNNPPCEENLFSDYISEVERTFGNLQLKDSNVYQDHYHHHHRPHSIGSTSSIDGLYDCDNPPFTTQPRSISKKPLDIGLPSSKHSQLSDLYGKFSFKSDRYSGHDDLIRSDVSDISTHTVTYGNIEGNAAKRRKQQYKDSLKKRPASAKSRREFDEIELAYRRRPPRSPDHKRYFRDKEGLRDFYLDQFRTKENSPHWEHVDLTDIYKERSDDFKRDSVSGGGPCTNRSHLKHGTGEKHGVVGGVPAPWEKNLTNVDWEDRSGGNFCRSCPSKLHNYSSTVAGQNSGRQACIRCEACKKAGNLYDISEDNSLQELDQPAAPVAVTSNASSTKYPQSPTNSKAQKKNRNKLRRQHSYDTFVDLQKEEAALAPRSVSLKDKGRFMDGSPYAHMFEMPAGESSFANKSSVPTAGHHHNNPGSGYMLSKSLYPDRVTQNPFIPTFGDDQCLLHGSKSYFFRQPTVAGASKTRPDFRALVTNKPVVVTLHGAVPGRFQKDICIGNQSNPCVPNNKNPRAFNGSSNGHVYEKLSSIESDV

[3] = Dissociation constant, pKa of the compound; format: physicochemical
[4] = molecular target: Glutamate NMDA receptor; Grin1/Grin2b (Rattus norvegicus, UniProt P35439+Q00960); assay: Inhibition of rat NMDA receptor NR1F/NR2B subunit expressed in Xenopus laevis oocytes after 2 days by two-electrode voltage-clamp electrophysiological assay; format: cell-based, Oocyte
[5] = molecular target: Glutamate receptor ionotropic, NMDA 2B (Mus musculus) (UniProt Q01097); assay: (§1) Antagonist activity at NMDA receptor GluN2B subunit in FVB mouse CA1 pyramidal neurons assessed as decrease in EPSC amplitude at holding potential of -60 mV at 6 uM measured at 5 mins by patch clamp electrophysiological assay in presence of Mg2+ free ACSF containing CNQX, glycine, bicuculline relative to control; format: functional, cell-based; parameters: scale not given: the % may be the effect or the level left; conditions: Pyramidal neuron
Sequence of Glutamate receptor ionotropic, NMDA 2B (Mus musculus) (Q01097 whole entry): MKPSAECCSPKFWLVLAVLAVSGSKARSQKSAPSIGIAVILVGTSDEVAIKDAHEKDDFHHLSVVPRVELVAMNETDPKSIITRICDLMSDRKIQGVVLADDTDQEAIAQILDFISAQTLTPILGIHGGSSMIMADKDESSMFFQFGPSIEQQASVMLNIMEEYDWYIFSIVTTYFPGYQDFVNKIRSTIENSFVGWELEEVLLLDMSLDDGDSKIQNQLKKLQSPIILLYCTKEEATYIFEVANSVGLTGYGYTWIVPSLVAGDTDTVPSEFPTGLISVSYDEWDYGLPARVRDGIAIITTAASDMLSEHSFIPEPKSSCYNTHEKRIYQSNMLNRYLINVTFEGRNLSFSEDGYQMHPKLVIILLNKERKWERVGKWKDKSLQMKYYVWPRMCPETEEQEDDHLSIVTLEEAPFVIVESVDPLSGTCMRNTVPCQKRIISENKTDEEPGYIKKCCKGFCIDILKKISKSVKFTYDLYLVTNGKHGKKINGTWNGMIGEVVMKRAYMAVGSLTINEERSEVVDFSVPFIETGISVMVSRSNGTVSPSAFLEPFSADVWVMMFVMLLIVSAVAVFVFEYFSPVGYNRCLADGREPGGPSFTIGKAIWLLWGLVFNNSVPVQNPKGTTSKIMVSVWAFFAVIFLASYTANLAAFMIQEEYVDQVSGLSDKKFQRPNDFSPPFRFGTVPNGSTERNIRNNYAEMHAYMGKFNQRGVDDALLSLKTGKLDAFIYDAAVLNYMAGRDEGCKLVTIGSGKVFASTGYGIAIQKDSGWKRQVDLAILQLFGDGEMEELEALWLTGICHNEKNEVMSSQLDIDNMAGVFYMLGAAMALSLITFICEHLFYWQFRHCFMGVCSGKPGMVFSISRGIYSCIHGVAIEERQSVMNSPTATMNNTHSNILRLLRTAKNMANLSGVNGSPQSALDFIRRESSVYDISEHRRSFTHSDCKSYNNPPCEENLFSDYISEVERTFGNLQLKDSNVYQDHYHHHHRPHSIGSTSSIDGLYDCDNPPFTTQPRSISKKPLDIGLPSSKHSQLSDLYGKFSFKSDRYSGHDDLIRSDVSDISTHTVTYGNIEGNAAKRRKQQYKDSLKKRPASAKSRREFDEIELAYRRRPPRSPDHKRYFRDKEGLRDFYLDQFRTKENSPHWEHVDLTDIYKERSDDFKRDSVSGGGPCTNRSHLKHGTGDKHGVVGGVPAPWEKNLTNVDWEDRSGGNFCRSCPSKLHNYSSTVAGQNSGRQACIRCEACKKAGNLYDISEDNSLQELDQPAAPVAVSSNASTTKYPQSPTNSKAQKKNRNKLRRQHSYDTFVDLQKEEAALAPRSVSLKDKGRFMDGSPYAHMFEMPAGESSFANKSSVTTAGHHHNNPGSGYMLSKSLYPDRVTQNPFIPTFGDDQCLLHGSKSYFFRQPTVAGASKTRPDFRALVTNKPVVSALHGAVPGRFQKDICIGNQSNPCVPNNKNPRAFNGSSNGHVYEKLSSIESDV

[6] = molecular target: Glutamate receptor ionotropic, NMDA 2B (Mus musculus) (UniProt Q01097); assay: as §1, with “at 50” for “at 6”; format: functional, cell-based; parameters: scale not given: the % may be the effect or the level left; conditions: Pyramidal neuron
[7] = molecular target: Glutamate receptor ionotropic, NMDA 2B (Mus musculus) (UniProt Q01097); assay: as §1, with “100 nM” for “6 uM”; format: functional, cell-based; parameters: scale not given: the % may be the effect or the level left; conditions: Pyramidal neuron
[8] = molecular target: Glutamate receptor ionotropic, NMDA 2B (Rattus norvegicus) (UniProt Q00960); assay: as §1, with “Wistar rat” for “FVB mouse”, “100 nM” for “6 uM”; format: functional, cell-based; parameters: scale not given: the % may be the effect or the level left; conditions: Pyramidal neuron

Sequence of Glutamate receptor ionotropic, NMDA 2B (Rattus norvegicus) (Q00960 27-1482 limits assumed): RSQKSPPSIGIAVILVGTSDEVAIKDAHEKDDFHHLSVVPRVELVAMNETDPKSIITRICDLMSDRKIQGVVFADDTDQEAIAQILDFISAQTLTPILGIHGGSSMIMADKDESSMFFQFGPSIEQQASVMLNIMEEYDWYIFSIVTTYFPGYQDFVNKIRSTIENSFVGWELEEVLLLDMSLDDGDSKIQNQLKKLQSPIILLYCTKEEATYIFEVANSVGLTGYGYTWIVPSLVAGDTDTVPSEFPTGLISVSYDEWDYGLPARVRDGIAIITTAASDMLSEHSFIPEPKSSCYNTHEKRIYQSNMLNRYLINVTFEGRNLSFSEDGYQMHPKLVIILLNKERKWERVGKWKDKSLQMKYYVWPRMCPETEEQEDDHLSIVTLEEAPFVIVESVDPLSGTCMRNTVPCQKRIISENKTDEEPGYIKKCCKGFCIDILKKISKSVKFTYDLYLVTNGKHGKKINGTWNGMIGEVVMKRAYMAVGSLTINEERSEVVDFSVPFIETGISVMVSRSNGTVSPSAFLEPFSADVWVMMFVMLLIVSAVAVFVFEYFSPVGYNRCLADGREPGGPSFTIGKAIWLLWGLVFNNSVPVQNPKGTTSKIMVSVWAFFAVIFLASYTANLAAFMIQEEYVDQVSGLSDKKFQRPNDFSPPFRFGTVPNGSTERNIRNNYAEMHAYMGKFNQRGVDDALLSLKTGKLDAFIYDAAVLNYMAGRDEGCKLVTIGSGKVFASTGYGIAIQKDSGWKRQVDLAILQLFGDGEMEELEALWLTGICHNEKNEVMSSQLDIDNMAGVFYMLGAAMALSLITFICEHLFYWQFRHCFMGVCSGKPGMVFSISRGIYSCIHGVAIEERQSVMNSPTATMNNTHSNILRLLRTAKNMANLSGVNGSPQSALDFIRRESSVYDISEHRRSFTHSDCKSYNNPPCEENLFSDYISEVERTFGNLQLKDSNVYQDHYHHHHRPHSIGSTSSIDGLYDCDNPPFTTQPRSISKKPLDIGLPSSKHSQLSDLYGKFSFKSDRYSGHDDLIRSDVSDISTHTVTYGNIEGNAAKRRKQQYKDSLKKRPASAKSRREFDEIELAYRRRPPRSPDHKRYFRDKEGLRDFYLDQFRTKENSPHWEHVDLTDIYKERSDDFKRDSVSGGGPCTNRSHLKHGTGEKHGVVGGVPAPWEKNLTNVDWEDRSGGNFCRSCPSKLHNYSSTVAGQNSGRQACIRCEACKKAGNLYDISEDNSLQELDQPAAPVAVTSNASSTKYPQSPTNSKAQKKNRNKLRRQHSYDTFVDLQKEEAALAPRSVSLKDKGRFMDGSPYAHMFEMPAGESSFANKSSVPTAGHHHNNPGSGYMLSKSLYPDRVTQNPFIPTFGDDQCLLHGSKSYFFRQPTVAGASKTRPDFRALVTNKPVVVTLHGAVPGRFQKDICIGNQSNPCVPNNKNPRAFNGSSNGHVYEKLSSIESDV

CS(=O)(=O)Nc1ccc2[nH]cc(C(=O)C(=O)N3CCC(Cc4ccccc4)CC3)c2c1
inhibition [1]: 42%

Nc1ccc2[nH]cc(C(=O)CN3CCC(Cc4ccccc4)CC3)c2c1
IC50 [2]: 1180 nM

O=C(CN1CCC(Cc2ccccc2)CC1)c1c[nH]c2cc(O)ccc12
pKa [3]: 9.63

C[C@@H](CN1CCC(Cc2ccccc2)CC1)[C@@H](O)c1ccc(O)cc1
IC50 [4]: 17 nM
Activity [5]: 29%

N[C@H](CCCP(=O)(O)O)C(=O)O
Activity [6]: 28%

CS(=O)(=O)Nc1ccc2c(C(=O)CN3CCC(Cc4ccccc4)CC3)c[nH]c2c1
pKa [3]: 9.97
Activity [7]: 23.3%
Activity [8]: 50%
IC50 [2]: 8.9 nM

Nc1ccc2c(C(=O)CN3CCC(Cc4ccccc4)CC3)c[nH]c2c1
IC50 [2]: 2270 nM

Nc1ccc2c(C(=O)C(=O)N3CCC(Cc4ccccc4)CC3)c[nH]c2c1
inhibition [1]: 32%

Nc1ccc2[nH]cc(C(=O)C(=O)N3CCC(Cc4ccccc4)CC3)c2c1
inhibition [1]: 40%

CS(=O)(=O)Nc1ccc2c(C(=O)C(=O)N3CCC(Cc4ccccc4)CC3)c[nH]c2c1
IC50 [2]: 63 nM

CS(=O)(=O)Nc1ccc2[nH]cc(C(=O)CN3CCC(Cc4ccccc4)CC3)c2c1
IC50 [2]: 320 nM
